{
  "source": "patent US20210308089A1",
  "about": "“METHODS OF TREATING AND/OR PREVENTING VIRAL INFECTIONS AND/OR DISEASES CAUSED BY VIRUSES IN A SUBJECT IN NEED THEREOF” (priority 2020, published 2021)",
  "system": "patients of the REDUCE-IT and earlier EPA placebo-controlled trials",
  "assay": "Example 3: adverse events by risk ratio, icosapent ethyl vs placebo (candidate categories; infectious disease terms of interest)",
  "conditions": "R-I",
  "data": [
    {"molecule": "CC/C=C\\C/C=C\\C/C=C\\C/C=C\\C/C=C\\CCCC(=O)OCC", "note": "[icosapent ethyl, eicosapentaenoic acid ethyl ester]", "values": [
      {"measurement": "NNT: Carotid bruit (AE table)", "result": 315},
      {"measurement": "NNT: Cholestasis (AE table)", "result": "−1.67e+07"},
      {"measurement": "NNT: Chrohn's Disease (AE table)", "result": 2045},
      {"measurement": "NNT: Cognitive Decline: Attention disorders and disturbances (AE table)", "result": "−8362005"},
      {"measurement": "NNT: Cognitive Decline: Cognitive and attention disorders and disturbances (AE table)", "result": "−8362005"},
      {"measurement": "NNT: Cough (AE table)", "result": "−69394"},
      {"measurement": "NNT: Decreased Appetite (AE table)", "result": "−215"},
      {"measurement": "NNT: Deep Venous Thromboembolism (AE table)", "result": 1364},
      {"measurement": "NNT: Depression: Depressed mood disorders and disturbances (AE table)", "result": "−340"},
      {"measurement": "NNT: Depression: Depressive disorders (AE table)", "result": "−314"},
      {"measurement": "NNT: Depression: Depressive disorders - Agitated depression (AE table)", "result": "−2044"},
      {"measurement": "NNT: Depression: Depressive disorders - Depression (AE table)", "result": "−408"},
      {"measurement": "NNT: Depression: Depressive disorders - Major depression (AE table)", "result": "−2044"},
      {"measurement": "NNT: Depression: Depressive disorders - Persistent depressive disorder (AE table)", "result": "−4088"},
      {"measurement": "NNT: Depression: Mood alterations - Depressed mood (AE table)", "result": "−3344802"},
      {"measurement": "NNT: Depression: Mood alterations - Depressive symptom (AE table)", "result": 4091},
      {"measurement": "NNT: Depression: Mood alterations with depressive symptoms (AE table)", "result": 4096},
      {"measurement": "NNT: Dermatitis psoriasiform (AE table)", "result": "−4089"},
      {"measurement": "NNT: Dermatitis, allergic (AE table)", "result": 454},
      {"measurement": "NNT: Diabetic Nephropathy (AE table)", "result": 4100},
      {"measurement": "NNT: ESRD (AE table)", "result": 4092},
      {"measurement": "NNT: Ear infection (AE table)", "result": 585},
      {"measurement": "NNT: Embolism and Thrombosis (AE table)", "result": "−1358"},
      {"measurement": "NNT: Emphysema (AE table)", "result": 511},
      {"measurement": "NNT: Epilepsy (AE table)", "result": "−1.67e+07"},
      {"measurement": "NNT: Erectile dysfunction (AE table)", "result": 232},
      {"measurement": "NNT: Furuncle (AE table)", "result": 818},
      {"measurement": "NNT: Gastroenteritis, viral (AE table)", "result": 372},
      {"measurement": "NNT: Gastroesophageal reflux (AE table)", "result": 682},
      {"measurement": "NNT: Gingivitis (AE table)", "result": 818},
      {"measurement": "NNT: Glomerulonephritis and Nephrotic Syndrome (AE table)", "result": 1023},
      {"measurement": "NNT: Guttate psoriasis (AE table)", "result": "−4089"},
      {"measurement": "NNT: Helicobacter infection (AE table)", "result": 1023},
      {"measurement": "NNT: Hepatitis C (AE table)", "result": "−4089"},
      {"measurement": "NNT: Herpes Zoster (AE table)", "result": 1371},
      {"measurement": "NNT: Herpes simplex (AE table)", "result": 1364},
      {"measurement": "NNT: Hyperglycemia (AE table)", "result": 186},
      {"measurement": "NNT: Hyperkalemia (AE table)", "result": 178},
      {"measurement": "NNT: Hypertension (AE table)", "result": 171},
      {"measurement": "NNT: Hypertensive Crisis (AE Table)", "result": 315},
      {"measurement": "NNT: Hypokalemia (AE table)", "result": "−815"},
      {"measurement": "NNT: Hypomagnesemia (AE table)", "result": 292},
      {"measurement": "NNT: Infected bite (AE table)", "result": 2046},
      {"measurement": "NNT: Influenza (AE table)", "result": 515},
      {"measurement": "NNT: Influenza like illness (AE table)", "result": 1024},
      {"measurement": "NNT: Jaundice cholestatic (AE table)", "result": "−1022"},
      {"measurement": "NNT: Large intestine polyps (AE table)", "result": 511},
      {"measurement": "NNT: Limb Fractures and Dislocations (AE table)", "result": 1024},
      {"measurement": "NNT: Lupus (AE table)", "result": 4090},
      {"measurement": "NNT: Microalbuminuria (AE table)", "result": 372},
      {"measurement": "NNT: Migraine (AE table)", "result": "−584"},
      {"measurement": "NNT: Mucosal inflammation (AE table)", "result": 2046},
      {"measurement": "NNT: Multiple Sclerosis (AE table)", "result": 4090},
      {"measurement": "NNT: Muscle spasms (AE table)", "result": 95},
      {"measurement": "NNT: NASH (AE table)", "result": 818},
      {"measurement": "NNT: NASH for b/l NFS >0.675 (AE table)", "result": 273},
      {"measurement": "NNT: NASH+Hepatic Steatosis for NFS >0.675 (AE table)", "result": 209},
      {"measurement": "NNT: Nasopharyngitis, Mild Severity (AE table)", "result": 516},
      {"measurement": "NNT: Nephrolithiasis (AE table)", "result": "−1017"},
      {"measurement": "NNT: Nephropathies (AE table)", "result": 455},
      {"measurement": "NNT: Nephrotic Syndrome (AE table)", "result": 4090},
      {"measurement": "NNT: Orthopnea (AE table)", "result": 1023},
      {"measurement": "NNT: PTSD (AE table)", "result": 4092},
      {"measurement": "NNT: Pancytopenia (AE table)", "result": 1023},
      {"measurement": "NNT: Pneumonia (AE table)", "result": 293},
      {"measurement": "NNT: Proteinuria (AE table)", "result": 455},
      {"measurement": "NNT: Psoriasis (AE table)", "result": "−341"},
      {"measurement": "NNT: Psoriatic Conditions (AE table)", "result": "−292"},
      {"measurement": "NNT: Psychosis: Psychotic disorder NEC (AE table)", "result": 4091},
      {"measurement": "NNT: Pulmonary Edema (AE table)", "result": 511},
      {"measurement": "NNT: Respiratory Failure (AE table)", "result": 2050},
      {"measurement": "NNT: Respiratory tract infection (AE table)", "result": 1368},
      {"measurement": "NNT: Rheumatoid Arthritis (AE table)", "result": 1363},
      {"measurement": "NNT: Rhinitis (AE table)", "result": 682},
      {"measurement": "NNT: Schizophrenia NEC (AE table)", "result": 4091},
      {"measurement": "NNT: Sepsis (AE table)", "result": 455},
      {"measurement": "NNT: Severe chronic obstructive pulmonary disease (AE table)", "result": 1365},
      {"measurement": "NNT: Severe dermatitis, allergic (AE table)", "result": 1363},
      {"measurement": "NNT: Severe gastroenteritis (AE table)", "result": 1023},
      {"measurement": "NNT: Severe sepsis (AE table)", "result": 585},
      {"measurement": "NNT: Severe systemic inflammatory response syndrome (AE table)", "result": 818},
      {"measurement": "NNT: Severe urinary tract infection (AE table)", "result": 585},
      {"measurement": "NNT: Systemic inflammatory response syndrome (AE table)", "result": 682},
      {"measurement": "NNT: Tooth infection (AE table)", "result": 455},
      {"measurement": "NNT: Ulcerative Colitis (AE table)", "result": 4090},
      {"measurement": "NNT: Upper respiratory tract infection (AE table)", "result": 516},
      {"measurement": "NNT: Vascular hypertensive disorder (AE table)", "result": 124},
      {"measurement": "NNT: Vulvovaginal mycotic infection (AE table)", "result": 682},
      {"measurement": "NNT: Wheezing (AE table)", "result": 315},
      {"measurement": "Risk Ratio (95% CI): ADHD (AE table)", "result": "1.000 (0.141 to 7.097) −1"},
      {"measurement": "Risk Ratio (95% CI): Allergic sinusitis (AE table)", "result": "0.500 (0.092 to 2.729) 3"},
      {"measurement": "Risk Ratio (95% CI): Alzheimer's Disease (AE table)", "result": "1.000 (0.290 to 3.452) −1"},
      {"measurement": "Risk Ratio (95% CI): Asthma (AE table)", "result": "1.076 (0.742 to 1.560) −1"},
      {"measurement": "Risk Ratio (95% CI): Atelectasis (AE table)", "result": "0.500 (0.243 to 1.030) 3"},
      {"measurement": "Risk Ratio (95% CI): Bipolar Disease (AE table)", "result": "0.333 (0.035 to 3.204) 4"},
      {"measurement": "Risk Ratio (95% CI): Blood CPK increased (AE table)", "result": "0.684 (0.485 to 0.964) 2"},
      {"measurement": "Risk Ratio (95% CI): Blood glucose increased (AE table)", "result": "0.400 (0.126 to 1.275) 3"},
      {"measurement": "Risk Ratio (95% CI): Bone Fractures (AE table)", "result": "2.000 (0.181 to 22.053) −3"},
      {"measurement": "Risk Ratio (95% CI): Bronchiectasis (AE table)", "result": "0.500 (0.125 to 1.998) 3"},
      {"measurement": "Risk Ratio (95% CI): Bronchitis chronic (AE table)", "result": "0.667 (0.273 to 1.630) 2"},
      {"measurement": "Risk Ratio (95% CI): CKD (AE table)", "result": "1.123 (0.766 to 1.646) −1"},
      {"measurement": "Risk Ratio (95% CI): COPD (AE table)", "result": "1.084 (0.837 to 1.405) −1"},
      {"measurement": "Risk Ratio (95% CI): Carotid bruit (AE table)", "result": "0.435 (0.207 to 0.913) 3"},
      {"measurement": "Risk Ratio (95% CI): Cholestasis (AE table)", "result": "1.000 (0.063 to 15.986) −1"},
      {"measurement": "Risk Ratio (95% CI): Chrohn's Disease (AE table)", "result": "0.333 (0.035 to 3.204) 4"},
      {"measurement": "Risk Ratio (95% CI): Cognitive Decline: Attention disorders and disturbances (AE table)", "result": "1.000 (0.141 to 7.097) −1"}
    ]}
  ]
}
